Test results: patent publication US20100216886A1, “POLYMORPHS OF N2-(1,1'-BIPHENYL-4-YLCARBONYL)-N1-[2-(4-FLUOROPHENYL)-1,1-DIMETHYLETHYL]-L-ALPHA-GLUTAMINE” (Wyeth, priority 2006, published 2010)
Converted amounts (≈) assume the structure as drawn. “Also recorded” adds a separate entry of the source. Where a name gives a salt, the structure may show the parent alone. Read-outs that look alike come from different tables or passages of the source.

What was measured:
[1] = Solubility of suspensions in Tox formulation (2% Tween 80 in water) by HPLC; type: physicochemical; conditions: ambient conditions
Method: Suspensions of 10 to 20 mg/mL of compound (I) in a Tox (toxicological) formulation (2% Tween 80 in water) using the polymorphs described above were prepared and equilibrated at ambient conditions. The stability of the suspensions was evaluated visually and the solubility of the suspensions was determined by HPLC.
Mobile Phase: A=900 mL/100 mL/0.1 mL Water/Acetonitrile/TFA
B=100 mL/900 mL/0.1 mL Water/Acetonitrile/TFA

[2] = Second CACO-2 study, propranolol as reference; type: in vitro ADME; conditions: human, Caco-2; A → B, apical pH 6, basolateral pH 7, without verapamil
Description: The second CACO-2 study gave somewhat different results (Table 12). Because metoprolol interferes with the LC/MS assay, propranolol, which has a permeability that is […] metoprolol, was used as the FDA calibration compound. The apical pH was controlled at 6 and basolateral pH at pH 7. In addition, verapamil was used as a competitive inhibitor of the Pgp (P-glycoprotein) transporter. The ratios to propranolol were 1.00 and 0.77 with and without verapamil. […] The B→A/A→B ratios were low at 0.3 and 0.3, with and without verapamil, respectively, indicating again no efflux […].

[3] = pH solubility profile and pKa fitting; conditions: for solubility at 24 h: aqueous buffer, thermodynamic from solid
Method: The pH solubility profile was generated first with Sample D containing polymorph Form A, and then with Sample F containing polymorph Form B, in HCl/NaOH solutions. After 24 hour equilibration, suspensions were centrifuged and the supernatants assayed by HPLC.
The solubility data was analyzed as a function of pH using the Henderson-Hasselbach equation:
Solubility=S0·[10^(PH-pKa)+1],
where S0 is the intrinsic solubility of the free acid.

[4] = Solubility in water and 2% Tw80 of samples used in toxicological formulation assessments; type: physicochemical
Description: Table 6 summarizes various solid-state properties of samples used in toxicological formulation assessments.

[5] = Polymorphic conversion study in aqueous media (2% Tween 80, water); type: physicochemical
Description: Polymorphic conversion of Form A to Form B was not observed with Sample D in 2% Tween 80 or water.
Polymorph pseudo Form A was obtained from a scaled up preparation of polymorph Form A (Sample E).
The polymorphic conversion appeared to be slower in water than in the 2% Tween suspension, probably due to the lower solubility in water.
DSC data also supported this observation (FIG. 11).

Solid state stability [6] = type: physicochemical
[7] = Dynamic Vapor Sorption (DVS) analysis; type: physicochemical; conditions: room temperature, 6-hour equilibration period
Description: Sample F was subject to Dynamic Vapor Sorption (DVS) analysis at room temperature. The sample was first analyzed by Karl Fischer (KF) titration containing initial moisture content of 3.7% for the monohydrate form. RH cycling started at 50% relative humidity (RH) to 100% RH and down to 0% RH and then back up to 100% RH. A 3-hour/step equilibration period was found insufficient, so the run was repeated with a 6-hour period, which was still not sufficient.
As a result, an equilibrium moisture study using desiccators containing saturated salt solutions for humidity control was performed. Sample F was incubated at 0%, 15%, 31%, 66%, 87%, and 100% RH in room temperature for up to 20 days. Samples were periodically assayed by KF titration to give the kinetic profiles. XRD analysis was performed at the end of 20 days. The data is summarized in Table 8 with kinetic and equilibrium data plotted in FIGS. 18 and 19.

[8] = Equilibrium moisture study in desiccators with saturated salt solutions (KF, XRD); type: physicochemical; conditions: Sample F incubated at room temperature, 20 days; listed as sesquihydrate
Method: As a result, an equilibrium moisture study using desiccators containing saturated salt solutions for humidity control was performed. […] Samples were periodically assayed by KF titration to give the kinetic profiles. XRD analysis was performed at the end of 20 days. The data is summarized in Table 8 with kinetic and equilibrium data plotted in FIGS. 18 and 19.

[9] = In situ rat perfusion model, metoprolol as reference; type: in vivo; parameters: Papp: dose or concentration left out as unconfirmed
Description: The permeability was 18.2 nm/sec, which is higher than the 14.5 nm/sec value obtained for metoprolol (Table 13).

[10] = First CACO-2 study, metoprolol as reference; conditions: human; for recovery: Caco-2, pH 7.4, % Recovery, pH 7.4
[11] = Thermal stress of polymorph Form B (vacuum drying, oven); type: physicochemical
Method: Polymorph Form B (Sample F) was stressed with vacuum drying at 40° C.

Solid state stability [12] = type: physicochemical; conditions: 40° C./75% RH, open and closed vials, 3 months
Method: Sample F containing polymorph Form B was further investigated at 40° C./75% RH using open and closed vials for 3 months. […] Therefore, the monohydrate needs to be stored in hermetically sealed containers in order to prevent conversion to the sesquihydrate.

[13] = vacuum drying at 40° C., 36 hours
[14] = 1-month storage at 40° C./75% RH

Compound: CC(C)(Cc1ccc(F)cc1)NC(=O)[C@H](CCC(=O)O)NC(=O)c1ccc(-c2ccccc2)cc1 [Sample 4, N^2-(1,1′-biphenyl-4-ylcarbonyl)-N^1-[2-(4-fluorophenyl)-1,1-dimethylethyl]-L-α-glutamine]
- solubility ([1]; 2% Tween 80 in water (Tox formulation), aqueous with cosolvent or surfactant or cyclodextrin, thermodynamic from solid, read-out: Solubility): 221 µg/mL (≈ 464 µM)

Compound: CC(C)NCC(O)COc1cccc2ccccc12 (centres unmarked) [Propranolol, reference compound]
- Papp A→B [2]: 62.6 ×10⁻⁶ cm/s

Compound: CC(C)(Cc1ccc(F)cc1)NC(=O)[C@H](CCC(=O)O)NC(=O)c1ccc(-c2ccccc2)cc1 [sodium salt, N^2-(1,1′-biphenyl-4-ylcarbonyl)-N^1-[2-(4-fluorophenyl)-1,1-dimethylethyl]-L-α-glutamine]
- Solubility at pH 12.8 ([3]; HCl/NaOH solutions, 24 hour equilibration, HPLC): 4.7 mg/mL

Compound: CC(C)(Cc1ccc(F)cc1)NC(=O)[C@H](CCC(=O)O)NC(=O)c1ccc(-c2ccccc2)cc1 [Sample D, N^2-(1,1′-biphenyl-4-ylcarbonyl)-N^1-[2-(4-fluorophenyl)-1,1-dimethylethyl]-L-α-glutamine]
- solubility at 24 h ([3]; Solubility at pH<4): ~4.5 µg/mL (≈ 9.44 µM)
- Solubility, 2% Tw80 [4]: 468 µg/mL (≈ 982 µM)
- pH of 2% Tw80 solubility sample [4]: 5.4
- Solubility, Water [4]: 37 µg/mL (≈ 77.6 µM)
- pH of water solubility sample [4]: 5.5
- Polymorphic conversion ([5]; 2% Tween 80/water suspension, overnight): not observed; also recorded: did not undergo polymorphic conversion
- Polymorphic conversion / Polymorph Form after stirring ([5]; suspension 100 mg/mL in water, overnight (~18 hr), ambient conditions): not observed; also recorded: did not undergo polymorphic conversion
- Chemical stability, solid state (Solid state stability [6]; 14-day storage at room temperature, in temperatures up to 80° C., and in a light box (510 fc)): demonstrated chemical stability

Compound: CC(C)(Cc1ccc(F)cc1)NC(=O)[C@H](CCC(=O)O)NC(=O)c1ccc(-c2ccccc2)cc1 [Form C, N^2-(1,1′-biphenyl-4-ylcarbonyl)-N^1-[2-(4-fluorophenyl)-1,1-dimethylethyl]-L-α-glutamine]
- RH range in which the form is stable (DVS) [7]: 30-100 % RH
- RH range at which the form is present by XRD [8]: 66-100 % RH

Compound: CC(C)(Cc1ccc(F)cc1)NC(=O)[C@H](CCC(=O)O)NC(=O)c1ccc(-c2ccccc2)cc1 [Sample 2, N^2-(1,1′-biphenyl-4-ylcarbonyl)-N^1-[2-(4-fluorophenyl)-1,1-dimethylethyl]-L-α-glutamine]
- solubility [1]: 245.0 µg/mL (≈ 514 µM)

Compound: CC(C)(Cc1ccc(F)cc1)NC(=O)[C@H](CCC(=O)O)NC(=O)c1ccc(-c2ccccc2)cc1 [G, N^2-(1,1′-biphenyl-4-ylcarbonyl)-N^1-[2-(4-fluorophenyl)-1,1-dimethylethyl]-L-α-glutamine]
- Solubility, 2% Tw80 [4]: 127 µg/mL (≈ 266 µM)
- pH of 2% Tw80 solubility sample [4]: 5.9

Compound: COCCc1ccc(OCC(O)CNC(C)C)cc1 (centres unmarked) [Metoprolol, reference compound]
- Papp ([9]; in situ rat perfusion model, read-out: permeability): 1.45 ×10⁻⁶ cm/s
- Peff × 10^−1 (μm/sec) ([9]; rat perfusion, 20 μg/mL): 1.45 × 10^−1 μm/sec
- Papp A→B ([10]; Caco-2, pH 7.4): 60.4 ×10⁻⁶ cm/s
- recovery ([10]; A → B): 109%
- recovery ([10]; B → A): 115%

Compound: CC(C)(Cc1ccc(F)cc1)NC(=O)[C@H](CCC(=O)O)NC(=O)c1ccc(-c2ccccc2)cc1 [Sample 1, N^2-(1,1′-biphenyl-4-ylcarbonyl)-N^1-[2-(4-fluorophenyl)-1,1-dimethylethyl]-L-α-glutamine]
- solubility [1]: 201.9 µg/mL (≈ 424 µM)

Compound: CC(C)(Cc1ccc(F)cc1)NC(=O)[C@H](CCC(=O)O)NC(=O)c1ccc(-c2ccccc2)cc1 [Sample 7, N^2-(1,1′-biphenyl-4-ylcarbonyl)-N^1-[2-(4-fluorophenyl)-1,1-dimethylethyl]-L-α-glutamine]
- solubility [1]: 216.4 µg/mL (≈ 454 µM)

Compound: CC(C)(Cc1ccc(F)cc1)NC(=O)[C@H](CCC(=O)O)NC(=O)c1ccc(-c2ccccc2)cc1 [Sample F, N^2-(1,1′-biphenyl-4-ylcarbonyl)-N^1-[2-(4-fluorophenyl)-1,1-dimethylethyl]-L-α-glutamine]
- solubility at 24 h ([3]; Solubility at pH<4 (below HPLC detection limit)): < 0.011 µg/mL
- Conversion of monohydrate to anhydrate ([11]; 100° C. oven, 23 hours): convert completely to the anhydrate
- Conversion of monohydrate to anhydrate [11, 13]: did not convert to the anhydrate
- Water retained [11, 13]: 2.95%
- Solubility, 2% Tw80 [4]: 217 µg/mL (≈ 455 µM)
- pH of 2% Tw80 solubility sample [4]: 5.9
- Solubility, Water [4]: 99 µg/mL (≈ 208 µM)
- pH of water solubility sample [4]: 7.6
- Chemical stability, solid state (Solid state stability [12]): chemically stable
- Polymorphic conversion (DSC and XRD) (Solid state stability [6]; [14]): polymorphic conversion from Form B to Form C
- Water content (Solid state stability [6]; [14]): 5.4%

Compound: CC(C)(Cc1ccc(F)cc1)NC(=O)[C@H](CCC(=O)O)NC(=O)c1ccc(-c2ccccc2)cc1 [Sample A, N^2-(1,1′-biphenyl-4-ylcarbonyl)-N^1-[2-(4-fluorophenyl)-1,1-dimethylethyl]-L-α-glutamine]
- Degradation products of compound (I) by HPLC in converted materials ([5]; after conversion in 2% Tween 80 or water): do not contain degradation products
